Several values for one entry are separate records, joined by “and”; a condition that tells them apart may be missing. Equal values may be shown once.
Tested on: Aβ1-40-induced AD rats
Test: Morris Water Maze Test on Aβ1-40-induced AD rats
Type: in vivo, Sprague-Dawley male rats
Conditions: for Arrival Time of Platform: Donepezil 1 mg/kg by stomach tube once per day
Method: The control group was injected with 5 μL of saline. […] From the fourth week after the administration, learning and memory-related behavior was assessed using the Morris Water Maze Test on ten rats arbitrarily-chosen from each group once a day for one week (from day 1 to day 6 the time to arrive at the platform is measured, and on day 7 the platform is removed and the frequency to cross (pass by) the platform location is counted). After completing the behavioral test, the rats were sacrificed. The cerebral tissues separated from half of the rats of each group were used for pathological examination, and the olfactory bulb, hippocampus, locus ceruleus, and cerebral cortex from another half were used to determine the NGF content with enzyme-linked immunosorbent assay (ELISA).

SMILES: COc1cc2c(cc1OC)C(=O)C(CC1CCN(Cc3ccccc3)CC1)C2 (centres unmarked) [Donepezil]
- Arrival Time of Platform (Day 1, n = 10): 77.03 ± 29.92 s
- Arrival Time of Platform (Day 2, n = 10): 39.10 ± 26.36 s
- Arrival Time of Platform (Day 3, n = 10): 34.98 ± 23.42 s
- Arrival Time of Platform (Day 4, n = 10): 31.10 ± 23.26 s
- Arrival Time of Platform (Day 5, n = 10): 30.00 ± 21.11 s
- Arrival Time of Platform (Day 6, n = 10): 28.43 ± 23.45 s
- Frequencies of crossing platform location within two minutes (day 7, individual rats No. 1-10, Donepezil 1 mg/kg): 14 and 11 and 22 and 19 and 10 (2×) and 13 and 8 and 6 and 7
- Frequencies of crossing platform location within two minutes, Mean ± SD (day 7, n = 10, Donepezil 1 mg/kg): 12.00 ± 5.16
